# Measured values reported in patent publication US8962691B2, “Retinoid replacements and opsin agonists and methods for the use thereof” (University of Washington, priority 2003, dated 2015).
# What was measured:
# Rpe65−/− mice [1] = conditions: mouse, in vivo
# Description: Mice were anesthetized by intraperitoneal injection with 15 μl/g body weight of 6 mg/ml ketamine and 0.44 mg/ml xylazine diluted with 10 mM phosphate buffer, pH 7.2, containing 100 mM NaCl. The pupils were dilated with 1% tropicamide. A contact lens electrode was placed on the eye with a drop of methylcellulose, and a ground electrode (a reference electrode) was placed in the ear. ERGs were recorded with the universal testing and electrophysiologic system 3000 (UTAS E-3000) (LKC Technologies, Inc.). The mice were placed in a Ganzfield chamber, and responses to flash stimuli were obtained from both eyes simultaneously. […] Two to four recordings were made with >10-second intervals. Typically, 4-8 animals were used for recording of each point in all conditions. All ERG measurements were done within 10-40 minutes after anesthesia.
# phosphorylated opsin = target: T1, phosphorylated opsin (Mus musculus, UniProt P15409); assay: Immunocytochemistry with anti-phosphorylated Rh antibody; assay type: in vivo; conditions: gavaged once at PND 30, analyzed 48 hours post-treatment, dark
# T1 construct: The retinas from Rpe65+/+ mice and Rpe65−/− mice were fixed in constant darkness; from tissue; host or cells: retina sections of Rpe65-/- and Rpe65+/+ mice (in vivo dosing)
# T1 sequence (P15409 whole entry): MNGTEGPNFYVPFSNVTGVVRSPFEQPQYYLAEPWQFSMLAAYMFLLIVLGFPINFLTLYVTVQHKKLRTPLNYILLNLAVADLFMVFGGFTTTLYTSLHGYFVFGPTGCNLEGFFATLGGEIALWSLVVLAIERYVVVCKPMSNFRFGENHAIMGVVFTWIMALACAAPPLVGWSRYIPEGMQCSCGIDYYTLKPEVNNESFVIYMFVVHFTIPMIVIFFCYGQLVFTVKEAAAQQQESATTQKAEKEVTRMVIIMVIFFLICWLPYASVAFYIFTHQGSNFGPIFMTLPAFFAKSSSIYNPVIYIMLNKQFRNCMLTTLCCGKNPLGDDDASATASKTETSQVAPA
# Description: Rpe65 mice were divided into five groups: Rpe65−/−, Rpe65−/− that were gavaged with 9-cis-retinal and kept in the dark; Rpe65−/− that were gavaged with 9-cis-retinal, exposed to a flash, and kept in the dark for 15 min; Rpe65+/+ that were kept in the dark; and Rpe65+/+ that were exposed to a flash and kept in the dark for 15 minutes. For the flash studies, dark-adapted mice were subjected to a flash (Sunpak 433D, 1 ms) from a distance of 2 cm. The retinas were fixed in 4% paraformalydehyde in 0.13 M sodium phosphate, pH 7.4, for 15 hours at 4° C., and the tissues were transferred to 5, 10, or 15% sucrose in 0.13 M sodium phosphate, pH 7.4, for 30 minutes each time and stored overnight in 20% sucrose in the same buffer at 4° C. The tissue was then transferred to optimal cutting temperature cryoembedding compound and sectioned at 10 μm. The cryosections were incubated overnight at 4° C. in mouse monoclonal anti-phosphorylated Rh A11-82P antibody diluted 1:10. Triton X-100 (0.1%) was included in all phosphate-buffered saline solutions to facilitate antibody penetration. The controls were processed by omitting primary antibodies from the incubation buffer. After incubation in primary antibodies, the sections were rinsed with phosphate-buffered saline and then incubated with indocarbocyanine (Cy3)-conjugated goat anti-mouse IgG (1:200). […]
# Rpe65−/− mice [2] = assay: Light and electron microscopy of RPE-ROS interface; assay type: in vivo, mouse
# Description: Eye cups were prepared by removing the anterior segment and vitreous. […] “Thin” sections (1.0 μm) were stained with Richardson's blue solution (1%) and subjected to light microscopy. “Ultrathin” sections (0.05 μm) were stained with uranyl acetate/lead citrate and subjected to electron microscopy.
# rods from Rpe65−/− mice = assay: Single cell recordings of isolated rods; assay type: in vivo, mouse
# Description: Mice were dark-reared from birth and sacrificed via cervical dislocation, and the eyes were removed. The retina was isolated and stored on ice for up to 12 hours in HEPES-buffered Ames' solution (10 mM HEPES, pH adjusted to 7.4 with NaOH). Isolated rods were obtained by shredding a small piece of retina (roughly 1 mm^2) with fine needles in a 160-μl drop of solution. The drop was then injected into a recording chamber mounted on the stage of an inverted microscope (Nikon Eclipse) equipped with an infrared video viewing system and continuously superfused at 2-3 ml/minute with bicarbonate-buffered Ames' solution warmed to 37° C. (pH 7.4 when equilibrated with 5% CO2, 95% O2). The entire dissection was carried out under infrared illumination using a dissecting microscope equipped with infrared-visible image converters.
# An isolated rod was drawn by suction into a heat-polished, silanized borosilicate electrode with an opening 1.2-1.5 μm in diameter. The electrode was filled with HEPES-buffered Ames' solution. The electrical connections to the bath and suction electrode were made by NaCl-filled agar bridges that contacted calomel half-cells. Bath voltage was held at ground by an active clamp circuit (Baylor et al. J. Physiol. 354:203-23 (1984)). Membrane current collected by the suction electrode was amplified by an Axopatch 200A patch clamp amplifier (Axon Instruments, Foster City, Calif.), filtered at 30 Hz (3 dB point) with an 8-pole Bessel low pass filter, and digitized at 1 kHz.
# Light from light-emitting diodes with peak outputs at 470, 570, and 640 nm were combined using a trifurcated fiber optic and focused on the preparation using a water immersion lens in place of the microscope condensor. The light stimulus was spatially uniform and illuminated a circular area 0.57 mm in diameter centered on the recorded cell. Light intensities were measured at the preparation and converted to equivalent 500-nm photons (max for rod sensitivity) using the absorption spectrum of rhodopsin and the measured light-emitting diode spectrum.
# [3] = Retinal in blood circulation after intravenous injection or gavage; assay type: in vivo, mouse; conditions: for t1/2 in the circulation: intravenous injection
# Description: Oral gavage was carried out as described previously (Van Hooser et al., Proc. Natl. Acad. Sci. USA 97:8623-28 (2000)).
# The chemicals were purchased from Sigma/Aldrich unless otherwise specified. Solution A contained 10 mg of 9-cis-retinal, 75 mg of Cremophor EL, 1 mg of α-tocopherol, and 0.6 mg of benzoic acid suspended in 1 ml of lactated Ringer's solution (Baxter). The mixture was vortexed for 10 minutes and centrifuged for 10 minutes at 20,000×g, and the concentration of 9-cis-retinal (7.7 mM) was determined spectrophotometrically. Solution B contained 13 mg of 9-cis-retinal, 50 mg of Cremophor EL, 10 mg of dipalmitoylphosphatidyl choline, and 40 mg of 2-hydroxypropyl-β-cyclodextrin suspended in 1 ml of lactated Ringer's solution (Baxter). The mixture was vortexed for 10 minutes and centrifuged for 10 minutes at 20,000×g, and the concentration of 9-cis-retinal (10 mM) was determined spectrophotometrically. Solutions A and B (typically, 100 μl) were delivered to the mouse lateral tail vein employing a 1-ml syringe equipped with a 27-gauge needle and a restraint tube.
structure (smiles),measurement,setting,value
CC1=C(/C=C/C(C)=C\C=C\C(C)=C\C=O)C(C)(C)CCC1 [9-cis-retinal],ERG activity (a- and b-wave) compared with Me2SO,Rpe65−/− mice [1],significantly increased sensitivity
same,ROS labeling by antibody against phosphorylated opsin,phosphorylated opsin,abolished
same,filling of RPE vacuoles (lipid-like droplets),"Rpe65−/− mice [2]; early treated mice, over several months",only partially filled
same,interface contacts between the RPE and ROS,Rpe65−/− mice [2]; young animals or young adults treated,improved
same,factor of increase of half-saturating flash intensity over Rpe65+/+ rods,rods from Rpe65−/− mice; 0.25 mg,131
same,further desensitization of rods,rods from Rpe65−/− mice; 0.25 mg,6.8 fold
same,light-sensitive dark current of rods,rods from Rpe65−/− mice; 0.25 mg,3.6±0.9 pA
same,factor of increase of half-saturating flash intensity over Rpe65+/+ rods,rods from Rpe65−/− mice; 1.25 mg,66
same,further desensitization of rods,rods from Rpe65−/− mice; 1.25 mg,4.5 fold
same,dim flash response kinetics vs Rpe65+/+,rods from Rpe65−/− mice; 2.5 mg,essentially the same kinetics
same,factor of increase of half-saturating flash intensity over Rpe65+/+ rods,rods from Rpe65−/− mice; 2.5 mg,6
same,increase in half-saturating flash strength compared with rods of Rpe65+/+,rods from Rpe65−/− mice; 2.5 mg,6 fold
same,rod dark current,rods from Rpe65−/− mice; 2.5 mg,essentially the same as Rpe65+/+
same,dim flash response time-to-peak and recovery times,rods from Rpe65−/− mice; 1.25 or 0.25 mg,substantially faster than those of Rpe65+/+
same,half-saturating flash intensity I0,rods from Rpe65−/− mice; Rpe65−/− mice treated with 0.25 mg of 9-cis-retinal,3929 equivalent 500 nm photons/μm^2
same,half-saturating flash intensity I0,rods from Rpe65−/− mice; Rpe65−/− mice treated with 1.25 mg of 9-cis-retinal,1995 equivalent 500 nm photons/μm^2
same,half-saturating flash intensity I0,rods from Rpe65−/− mice; Rpe65−/− mice treated with 2.5 mg of 9-cis-retinal,164 equivalent 500 nm photons/μm^2
same,presence of retinal in the bloodstream,[3]; gavage,greater than 48 hours
same,t1/2 in the circulation,[3]; in the presence of cyclodextrins,23 h
same,t1/2 in the circulation,[3]; without cyclodextrins,12 h
